Measured values from patent publication US20250092086A1, “CELASTROL SALTS, CRYSTALLINE FORMS, AND USES THEREOF” (ERX Pharmaceuticals Inc., priority 2022, published 2025).
Values after ≈ are worked out from the molar mass of the structure shown. “Also recorded” adds a separate entry of the source. Like-named read-outs stand apart in the source and are kept apart here.

What was measured:
[1] = Solubility in water at 37° C.; assay type: physicochemical
Source text: This compound can be considered as very slightly soluble (<1 g/L).

[2] = Hygroscopicity (DVS), water sorption/desorption at 37° C.; assay type: physicochemical; details: for Hysteresis with the final mass at 50% RH / Mass decrease as the RH was lowered to 0% / Mass increase as the RH was increased to 95% / Water uptake, water sorption/desorption isotherms / Hysteresis observed with the final mass at 50% RH: DVS, 37° C.; for DVS (hygroscopicity): water sorption/desorption isotherms at 37° C., 0-95% RH
Protocol: The hygroscopicity experiments were carried out with a DVS Intrinsic from S.M.S. This technique is designed to accurately measure a sample's change in mass as it sorbs precisely controlled concentrations of water vapors in an air carrier gas. The method used for DVS experiments (at 37° C.) is summarized below. • Equilibrating 10 min at 50% RH • Decreasing to 0% RH in 60 min • Equilibrating 10 min at 0% RH • Increasing to 95% RH in 280 min • Equilibrating 10 min at 95% RH • Decreasing to 50% RH in 100 min • Equilibrating 20 min at 50% RH
(§1) The hygroscopic experiments were carried out with a DVS Intrinsic from S.M.S. This technique is designed to accurately measure a sample's change in mass as it sorbs precisely controlled concentrations of water vapors in an air carrier gas. All the methods used for DVS experiments are summarized below. It should be noticed that the temperature and relative humidity (RH) are pre-set according to the initial temperature and RH.
• Equilibrating 120 min at 50% RH • Decreasing to 0% RH in 60 min • Equilibrating 150 min at 0% RH • Increasing to 95% RH in 200 min • Equilibrating 360 min at 95% RH • Decreasing to 50% RH in 100 min • Equilibrating 150 min at 50% RH
as §1, with “hygroscopicity” for “hygroscopic”, “below, and it” for “below. It”
as §1, with “hygroscopicity” for “hygroscopic”

[3] = XRPD under temperature and relative humidity; assay type: physicochemical; details: for XRPD under temperature: impact / new crystalline phase: 25 to 100° C., RH set at 30%; for XRPD under relative humidity: impact / new crystalline phase: RH 10 to 80-90% at 40° C.; for Physical stability under the conditions tested (temperature and RH): XRPD, 25-100° C. and 10-90% RH at 40° C.
Protocol: Method 1: influence of temperature at ambient RH. RH was set at 30% in order to simulate a RH near from the ambient RH, and the temperature studied were 25-[…]-100° C.
Method 2: influence on RH at 40° C. The RH studied was at 10-30-80%.
These experiments studied the influence of temperature at ambient RH. RH was wet at 30% in order to simulate a RH near from the ambient RH, and the temperatures studied were 25-50-100° C.
These experiments studied the influence on RH at 40° C. The RH studied were 10-30-88%.
Using Method 1, the influence of temperature at ambient RH was studied. RH was set at 30% in order to simulate a RH near from the ambient RH, and the temperatures studied were 25-50-100° C. FIG. 24 provides the XRPD pattern representing the influence of temperature on Compound 1 Form I.
Using Method 2, the influence on RH at 40° C. was studied. The RH studied were 10-30-90%.
Using Method 1, the influence of temperature at ambient RH was studied. RH was set at 30% in order to simulate a RH near from the ambient RH. Temperature studied: 25-50-100° C.
Using Method 2, the influence on RH at 40° C. was studied at 10-30-90%.

[4] = counter-ion, cited from earlier work; for pKa (B): basic function
[5] = Solubility study of Compound I Form I in various solvents and temperatures; assay type: physicochemical
Protocol: The solubility of Compound 1 Form I was assessed in order to identify potential crystallization media. Compound 1 Form I was found very soluble in dichoromethane even at low temperature (10° C.).

## CC1=C(O)C(=O)C=C2C1=CC=C1[C@@]2(C)CC[C@@]2(C)[C@@H]3C[C@](C)(C(=O)O)CC[C@]3(C)CC[C@]12C [Compound 2]
[1]
  Solubility in water at 37° C.: < 1.5 mg/mL
[1]; listed as Trometamol salt
  Solubility in water at 37° C.: (s < 1.5 g/L)
[2]
  Hysteresis with the final mass at 50% RH: ~3 % w/w
  Mass decrease as the RH was lowered to 0%: ~3.8 % w/w
  Mass increase as the RH was increased to 95%: 11 % w/w
  Water uptake, water sorption/desorption isotherms: 2 ˜15 % w/w
  DVS (hygroscopicity): hygropscopic
[2]; listed as Trometamol salt
  DVS (hygroscopicity): Hygroscopic
[3]
  XRPD under temperature: impact / new crystalline phase: No impact of temperature
  XRPD under relative humidity: impact / new crystalline phase: formation of a new crystalline pattern
[3]; listed as Trometamol salt
  XRPD under temperature: impact / new crystalline phase: =>No new crystalline phase until 100 °C
  XRPD under relative humidity: impact / new crystalline phase: less stable physically under relative humidity; also recorded: =>New crystaline phase from 80% RH

## NC(CO)(CO)CO [trometamol, tris(hydroxymethyl)aminomethane]
[4]
  pKa (B): 8.2

## CC1=C(O)C(=O)C=C2C1=CC=C1[C@@]2(C)CC[C@@]2(C)[C@@H]3C[C@](C)(C(=O)O)CC[C@]3(C)CC[C@]12C [Compound 1 Form II, 3-hydroxy-9β,13α-dimethyl-2-oxo-24,25,26-trinoroleana-1(10),3,5,7-tetraen-29-oic acid]
[2]
  Hysteresis observed with the final mass at 50% RH: No hysteresis
  Mass decrease as the RH was lowered to 0%: ~0.08 % w/w
  Mass increase as the RH was increased to 95%: about 0.13 % w/w
  Water uptake, water sorption/desorption isotherms: < 0.2 % w/w
  DVS (hygroscopicity): non-hygroscopic
[2]; listed as FII
  DVS (hygroscopicity): Not hygroscopic
[3]
  XRPD under temperature: impact / new crystalline phase: No impact
  XRPD under relative humidity: impact / new crystalline phase: No impact
  Physical stability under the conditions tested (temperature and RH): good stability
[3]; listed as FII
  XRPD under temperature: impact / new crystalline phase: =>No new crystalline
  XRPD under relative humidity: impact / new crystalline phase: =>No new crystalline

## NCCCC[C@H](N)C(=O)O [L-Lysine]
[4]; acid function
  pKa (A): 2.16
[4]
  pKa (B): 9.18

## CC1=C(O)C(=O)C=C2C1=CC=C1[C@@]2(C)CC[C@@]2(C)[C@@H]3C[C@](C)(C(=O)O)CC[C@]3(C)CC[C@]12C [Compound 1, (2R,4aS,6aS,12bR,14aS,14bR)-10-hydroxy-2,4a,6a,9,12b,14a-hexamethyl-11-oxo-1,2,3,4,4a,5,6,6a,11,12b,13,14,14a,14b-tetradecahydropicene-2-carboxylic acid]
[1]
  Solubility in water at 37° C.: below 1 g/L
[1]; 37 °C
  solubility: < 1 mg/mL
[1]; listed as Free compound
  Solubility in water at 37° C.: (s < 1 g/L)
[2]
  Hysteresis with the final mass at 50% RH: ~0.1 wt-%
  Mass decrease as the RH was lowered to 0%: ~0.1 % w/w
  Mass increase as the RH was increased to 95%: ~0.2 % w/w
  Water uptake, water sorption/desorption isotherms: < 0.2 wt-%
  DVS (hygroscopicity): non-hygroscopic
[2]; listed as Free compound
  DVS (hygroscopicity): Non hygroscopic
[2]; listed as free Celastrol
  DVS (hygroscopicity): Non-hygroscopic
[2]; listed as free compound
  DVS (hygroscopicity): non hygroscopic
[3]; listed as Free compound
  XRPD under temperature: impact / new crystalline phase: =>No new crystalline phase until
  XRPD under relative humidity: impact / new crystalline phase: =>No new crystalline phase from
[3]; listed as free Celastrol
  XRPD under temperature: impact / new crystalline phase: no new crystalline phase until 100 °C
  XRPD under relative humidity: impact / new crystalline phase: no new crystalline phase from 10 to 90% RH
[3]; listed as free compound
  XRPD under temperature: impact / new crystalline phase: No impact
  XRPD under relative humidity: impact / new crystalline phase: physically stable under relative humidity; also recorded: No impact
  Physical stability under the conditions tested (temperature and RH): physically stable

## CC1=C(O)C(=O)C=C2C1=CC=C1[C@@]2(C)CC[C@@]2(C)[C@@H]3C[C@](C)(C(=O)O)CC[C@]3(C)CC[C@]12C [Compound 1 Form I, 3-hydroxy-9β,13α-dimethyl-2-oxo-24,25,26-trinoroleana-1(10),3,5,7-tetraen-29-oic acid]
[5]; CH2Cl2/EtOH 20/80, organic solvent or mixture, CH2Cl2-2/EtOH 20/80, 40° C.
  solubility: 31 to 40 mg/mL (≈ 68.8 to 88.8 mM)
[5]; aqueous with cosolvent or surfactant or cyclodextrin, MeOH/Water 67/33/V, 10° C.
  solubility: < 2 mg/mL
[5]; aqueous with cosolvent or surfactant or cyclodextrin, Water/EtOH 50/50, 10° C.
  solubility: < 11 mg/mL
[5]; aqueous with cosolvent or surfactant or cyclodextrin, Water/EtOH 50/50, 25° C.
  solubility: < 11 mg/mL
[5]; dichoromethane, even at low temperature (10° C.)
  Solubility in dichoromethane: very soluble
[5]; dichoromethane/ethanol 50:50 (V/V), high temperature
  Solubility in dichoromethane/ethanol 50:50 (V/V) at high temperature: relatively good solubility
[5]; dichoromethane/ethanol 50:50 (V/V), low temperature
  Solubility in dichoromethane/ethanol 50:50 (V/V) at low temperature: low solubility
[5]; methanol, organic solvent or mixture, MeOH, 10° C.
  solubility: 8 to 11 mg/mL (≈ 17.8 to 24.4 mM)
[5]; methanol, organic solvent or mixture, MeOH, 50° C.
  solubility: ~36 mg/mL (≈ 79.9 mM)
[5]; organic solvent or mixture, CH2Cl2, 25° C.
  solubility: > 120 mg/mL
[5]; organic solvent or mixture, CH2Cl2/EtOH 10/90, 10° C.
  solubility: 11 to 15 mg/mL (≈ 24.4 to 33.3 mM)
[5]; organic solvent or mixture, CH2Cl2/EtOH 10/90, 40° C.
  solubility: < 25 mg/mL
[5]; organic solvent or mixture, CH2Cl2/EtOH 30/70, 10° C.
  solubility: 25 to 45 mg/mL (≈ 55.5 to 99.9 mM)
[5]; organic solvent or mixture, CH2Cl2/EtOH 50/50, 10° C.
  solubility: > 40 mg/mL
[5]; organic solvent or mixture, CH2Cl2/EtOH 70/30, 10° C.
  solubility: > 40 mg/mL
[5]; organic solvent or mixture, CH2Cl2/EtOH 90/10, 10° C.
  solubility: > 40 mg/mL
[5]; organic solvent or mixture, Ethanol, 25° C.
  solubility: 9 to 14 mg/mL (≈ 20 to 31.1 mM)
[5]; organic solvent or mixture, Ethyl acetate, 10° C.
  solubility: 20 to 40 mg/mL (≈ 44.4 to 88.8 mM)
[5]; organic solvent or mixture, Propan-2-ol, 10° C.
  solubility: < 25 mg/mL
[5]; organic solvent or mixture, Propan-2-ol, 50° C.
  solubility: 25 to 40 mg/mL (≈ 55.5 to 88.8 mM)
[2]
  Hysteresis observed with the final mass at 50% RH: No hysteresis; also recorded: slight hysteresis
  Water uptake, water sorption/desorption isotherms: < 0.2 % w/w
  DVS (hygroscopicity): non hygroscopic; also recorded: non-hygroscopic
[2]; listed as Compound I Form I
  DVS (hygroscopicity): Non-hygroscopic
[2]; listed as FI
  DVS (hygroscopicity): Not hygroscopic
[3]
  XRPD under temperature: impact / new crystalline phase: No impact
  XRPD under relative humidity: impact / new crystalline phase: No impact
  Physical stability under the conditions tested (temperature and RH): good stability
[3]; listed as Compound I Form I
  XRPD under temperature: impact / new crystalline phase: no new crystalline phase until 100 °C
  XRPD under relative humidity: impact / new crystalline phase: no new crystalline phase from 10 to 90% RH
[3]; listed as FI
  XRPD under temperature: impact / new crystalline phase: =>No new crystalline
  XRPD under relative humidity: impact / new crystalline phase: =>No new crystalline
